SMILES: C=CC(=O)N1CCC[C@@H](n2nc(-c3ccc(Oc4ccccc4)cc3)c3c(N)ncnc32)C1
- solubility (mole fraction) (in ethanol, 298.15 K): 0.00312
- solubility (mole fraction) (in ethanol, 303.15 K): 0.00356
- solubility (mole fraction) (in ethanol, 308.15 K): 0.00396
- solubility (mole fraction) (in ethanol, 313.15 K): 0.00447
- solubility (mole fraction) (in ethanol, 323.15 K): 0.00551
- solubility (mole fraction) (in water, 298.15 K): 1.42e-07
- solubility (mole fraction) (in water, 303.15 K): 2.22e-07
- solubility (mole fraction) (in water, 308.15 K): 3.12e-07
- solubility (mole fraction) (in water, 313.15 K): 4.29e-07
- solubility (mole fraction) (in water, 323.15 K): 7.77e-07
